According to the supplement of paper PMC10307832:

Legend:
Test in all cases: relative viability (nuclei count vs DMSO), 5 days (fraction); higher = more cells survive
NVP-TAE684 + Lapatinib = compound: COc1cc(N2CCC(N3CCN(C)CC3)CC2)ccc1Nc1ncc(Cl)c(Nc2ccccc2S(=O)(=O)C(C)C)n1 [NVP-TAE684] + CS(=O)(=O)CCNCc1ccc(-c2ccc3ncnc(Nc4ccc(OCc5cccc(F)c5)c(Cl)c4)c3c2)o1 [Lapatinib] (partner 2 µM)
How it was run: (§1)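 After 5 days of treatment, lung cancer cells in 1536-well plates were fixed and stained in a single step (final 0.05% Triton X-100, 1% formaldehyde, 1 ug/ml Hoechst) and their nuclei counted on 4× images. Treatment had been applied by pin tool the day after seeding as one drug alone or as a fixed anchor-drug dose with five library-drug doses (not always all listed) in √10 steps. Relative viability is the nuclei count of treated wells divided by that of vehicle wells, and values are medians of duplicate plates.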

CUDC-101 + Dasatinib = compound: C#Cc1cccc(Nc2ncnc3cc(OC)c(OCCCCCCC(=O)NO)cc23)c1 [CUDC-101] + Cc1nc(Nc2ncc(C(=O)Nc3c(C)cccc3Cl)s2)cc(N2CCN(CCO)CC2)n1 [Dasatinib] (partner 0.075 µM)
How it was run: as §1

Vandetanib + Vorinostat = compound: COc1cc2/c(=N/c3ccc(Br)cc3F)nc[nH]c2cc1OCC1CCN(C)CC1 [Vandetanib] + O=C(CCCCCCC(=O)Nc1ccccc1)NO [Vorinostat] (partner 1 µM)
How it was run: as §1

CUDC-101 + Palbociclib = compound: C#Cc1cccc(Nc2ncnc3cc(OC)c(OCCCCCCC(=O)NO)cc23)c1 [CUDC-101] + CC(=O)c1c(C)c2cnc(Nc3ccc(N4CCNCC4)cn3)nc2n(C2CCCC2)c1=O [Palbociclib] (partner 0.5 µM)
How it was run: as §1

Calu-6 gave a relative viability (NVP-TAE684 + Lapatinib; first compound 0.2 µM) of 1.31 and a relative viability (NVP-TAE684 + Lapatinib; first compound 0.6325 µM) of 0.94.
For ChaGo-K-1, the relative viability (CUDC-101 + Dasatinib; first compound 0.01 µM) was 0.571, the relative viability (CUDC-101 + Dasatinib; first compound 0.03162 µM) was 0.612 and the relative viability (CUDC-101 + Dasatinib; first compound 0.1 µM) was 0.526. It also gave a relative viability (CUDC-101 + Dasatinib; first compound 0.3162 µM) of 0.539, a relative viability (CUDC-101 + Dasatinib; first compound 1 µM) of 0.529 and a relative viability (Vandetanib + Vorinostat; first compound 0.02 µM) of 0.735. It also gave a relative viability (Vandetanib + Vorinostat; first compound 0.06325 µM) of 0.765, a relative viability (Vandetanib + Vorinostat; first compound 0.2 µM) of 0.767 and a relative viability (Vandetanib + Vorinostat; first compound 0.6325 µM) of 0.797. For the same cell line, the relative viability (Vandetanib + Vorinostat; first compound 2 µM) was 0.798, the relative viability (CUDC-101 + Palbociclib; first compound 0.01 µM) was 0.918 and the relative viability (CUDC-101 + Palbociclib; first compound 0.03162 µM) was 0.908. It also gave a relative viability (CUDC-101 + Palbociclib; first compound 0.1 µM) of 0.94, a relative viability (CUDC-101 + Palbociclib; first compound 0.3162 µM) of 0.909 and a relative viability (CUDC-101 + Palbociclib; first compound 1 µM) of 0.738.
In the case of EBC-1, the relative viability (NVP-TAE684 + Lapatinib; first compound 0.2 µM) is reported as 0.221, the relative viability (NVP-TAE684 + Lapatinib; first compound 0.6325 µM) is reported as 0.223 and the relative viability (NVP-TAE684 + Lapatinib; first compound 2 µM) is reported as 0.192.
For EKVX, the relative viability (CUDC-101 + Dasatinib; first compound 0.01 µM) was 0.374, the relative viability (CUDC-101 + Dasatinib; first compound 0.03162 µM) was 0.499 and the relative viability (CUDC-101 + Dasatinib; first compound 0.1 µM) was 0.571. The relative viability (CUDC-101 + Dasatinib; first compound 0.3162 µM) was 0.439, the relative viability (CUDC-101 + Dasatinib; first compound 1 µM) was 0.362 and the relative viability (Vandetanib + Vorinostat; first compound 0.02 µM) was 0.727. The relative viability (Vandetanib + Vorinostat; first compound 0.06325 µM) was 0.697, the relative viability (Vandetanib + Vorinostat; first compound 0.2 µM) was 0.732 and the relative viability (Vandetanib + Vorinostat; first compound 0.6325 µM) was 0.776. For the same cell line, the relative viability (Vandetanib + Vorinostat; first compound 2 µM) was 0.382, the relative viability (CUDC-101 + Palbociclib; first compound 0.01 µM) was 0.374 and the relative viability (CUDC-101 + Palbociclib; first compound 0.03162 µM) was 0.335. For the same cell line, the relative viability (CUDC-101 + Palbociclib; first compound 0.1 µM) was 0.336, the relative viability (CUDC-101 + Palbociclib; first compound 0.3162 µM) was 0.405 and the relative viability (CUDC-101 + Palbociclib; first compound 1 µM) was 0.323. It also gave a relative viability (NVP-TAE684 + Lapatinib; first compound 0.2 µM) of 0.199, a relative viability (NVP-TAE684 + Lapatinib; first compound 0.6325 µM) of 0.189 and a relative viability (NVP-TAE684 + Lapatinib; first compound 2 µM) of 0.155.
With EMC-BAC-2 the relative viability (CUDC-101 + Dasatinib; first compound 0.01 µM) was 0.359, the relative viability (CUDC-101 + Dasatinib; first compound 0.03162 µM) was 0.324 and the relative viability (CUDC-101 + Dasatinib; first compound 0.1 µM) was 0.35. It also gave a relative viability (CUDC-101 + Dasatinib; first compound 0.3162 µM) of 0.262, a relative viability (CUDC-101 + Dasatinib; first compound 1 µM) of 0.149 and a relative viability (Vandetanib + Vorinostat; first compound 0.02 µM) of 0.506. For the same cell line, the relative viability (Vandetanib + Vorinostat; first compound 0.06325 µM) was 0.469, the relative viability (Vandetanib + Vorinostat; first compound 0.2 µM) was 0.431 and the relative viability (Vandetanib + Vorinostat; first compound 0.6325 µM) was 0.5. The relative viability (Vandetanib + Vorinostat; first compound 2 µM) was 0.369, the relative viability (CUDC-101 + Palbociclib; first compound 0.01 µM) was 0.546 and the relative viability (CUDC-101 + Palbociclib; first compound 0.03162 µM) was 0.514. The relative viability (CUDC-101 + Palbociclib; first compound 0.1 µM) was 0.502, the relative viability (CUDC-101 + Palbociclib; first compound 0.3162 µM) was 0.502 and the relative viability (CUDC-101 + Palbociclib; first compound 1 µM) was 0.375. For the same cell line, the relative viability (NVP-TAE684 + Lapatinib; first compound 0.2 µM) was 0.856, the relative viability (NVP-TAE684 + Lapatinib; first compound 0.6325 µM) was 0.805 and the relative viability (NVP-TAE684 + Lapatinib; first compound 2 µM) was 0.586.
EPLC-272H showed a relative viability (CUDC-101 + Dasatinib; first compound 0.01 µM) of 0.448, a relative viability (CUDC-101 + Dasatinib; first compound 0.03162 µM) of 0.364 and a relative viability (CUDC-101 + Dasatinib; first compound 0.1 µM) of 0.316. For the same cell line, the relative viability (CUDC-101 + Dasatinib; first compound 0.3162 µM) was 0.357, the relative viability (CUDC-101 + Dasatinib; first compound 1 µM) was 0.183 and the relative viability (Vandetanib + Vorinostat; first compound 0.02 µM) was 0.41. It also gave a relative viability (Vandetanib + Vorinostat; first compound 0.06325 µM) of 0.466, a relative viability (Vandetanib + Vorinostat; first compound 0.2 µM) of 0.447 and a relative viability (Vandetanib + Vorinostat; first compound 0.6325 µM) of 0.441. For the same cell line, the relative viability (Vandetanib + Vorinostat; first compound 2 µM) was 0.447, the relative viability (CUDC-101 + Palbociclib; first compound 0.01 µM) was 0.318 and the relative viability (CUDC-101 + Palbociclib; first compound 0.03162 µM) was 0.314. It also gave a relative viability (CUDC-101 + Palbociclib; first compound 0.1 µM) of 0.279, a relative viability (CUDC-101 + Palbociclib; first compound 0.3162 µM) of 0.282 and a relative viability (CUDC-101 + Palbociclib; first compound 1 µM) of 0.261. For the same cell line, the relative viability (NVP-TAE684 + Lapatinib; first compound 0.2 µM) was 0.813 and the relative viability (NVP-TAE684 + Lapatinib; first compound 2 µM) was 0.955.
H3255 gave a relative viability (CUDC-101 + Dasatinib; first compound 0.01 µM) of 0.429, a relative viability (CUDC-101 + Dasatinib; first compound 0.03162 µM) of 0.373 and a relative viability (CUDC-101 + Dasatinib; first compound 0.3162 µM) of 0.298. The relative viability (CUDC-101 + Dasatinib; first compound 1 µM) was 0.171, the relative viability (Vandetanib + Vorinostat; first compound 0.02 µM) was 0.763 and the relative viability (Vandetanib + Vorinostat; first compound 0.06325 µM) was 0.704. It also gave a relative viability (Vandetanib + Vorinostat; first compound 0.2 µM) of 0.808, a relative viability (Vandetanib + Vorinostat; first compound 0.6325 µM) of 0.507 and a relative viability (Vandetanib + Vorinostat; first compound 2 µM) of 0.644. For the same cell line, the relative viability (CUDC-101 + Palbociclib; first compound 0.01 µM) was 0.335, the relative viability (CUDC-101 + Palbociclib; first compound 0.03162 µM) was 0.351 and the relative viability (CUDC-101 + Palbociclib; first compound 0.1 µM) was 0.324. It also gave a relative viability (CUDC-101 + Palbociclib; first compound 0.3162 µM) of 0.292, a relative viability (CUDC-101 + Palbociclib; first compound 1 µM) of 0.238 and a relative viability (NVP-TAE684 + Lapatinib; first compound 0.2 µM) of 0.279. The relative viability (NVP-TAE684 + Lapatinib; first compound 0.6325 µM) was 0.18 and the relative viability (NVP-TAE684 + Lapatinib; first compound 2 µM) was 0.167.
HARA gave a relative viability (CUDC-101 + Dasatinib; first compound 0.01 µM) of 0.246, a relative viability (CUDC-101 + Dasatinib; first compound 0.03162 µM) of 0.311 and a relative viability (CUDC-101 + Dasatinib; first compound 0.1 µM) of 0.271. The relative viability (CUDC-101 + Dasatinib; first compound 0.3162 µM) was 0.282, the relative viability (CUDC-101 + Dasatinib; first compound 1 µM) was 0.229 and the relative viability (Vandetanib + Vorinostat; first compound 0.02 µM) was 0.496. It also gave a relative viability (Vandetanib + Vorinostat; first compound 0.06325 µM) of 0.477, a relative viability (Vandetanib + Vorinostat; first compound 0.2 µM) of 0.521 and a relative viability (Vandetanib + Vorinostat; first compound 0.6325 µM) of 0.616. For the same cell line, the relative viability (Vandetanib + Vorinostat; first compound 2 µM) was 0.524, the relative viability (CUDC-101 + Palbociclib; first compound 0.01 µM) was 0.278 and the relative viability (CUDC-101 + Palbociclib; first compound 0.03162 µM) was 0.204. The relative viability (CUDC-101 + Palbociclib; first compound 0.1 µM) was 0.246, the relative viability (CUDC-101 + Palbociclib; first compound 0.3162 µM) was 0.224 and the relative viability (CUDC-101 + Palbociclib; first compound 1 µM) was 0.172. It also gave a relative viability (NVP-TAE684 + Lapatinib; first compound 0.2 µM) of 1.09, a relative viability (NVP-TAE684 + Lapatinib; first compound 0.6325 µM) of 0.626 and a relative viability (NVP-TAE684 + Lapatinib; first compound 2 µM) of 0.232.
In the case of HCC-15, the relative viability (CUDC-101 + Dasatinib; first compound 0.01 µM) is reported as 0.641, the relative viability (CUDC-101 + Dasatinib; first compound 0.03162 µM) is reported as 0.622 and the relative viability (CUDC-101 + Dasatinib; first compound 0.1 µM) is reported as 0.628. For the same cell line, the relative viability (CUDC-101 + Dasatinib; first compound 0.3162 µM) was 0.672, the relative viability (CUDC-101 + Dasatinib; first compound 1 µM) was 0.473 and the relative viability (Vandetanib + Vorinostat; first compound 0.02 µM) was 0.832. It also gave a relative viability (Vandetanib + Vorinostat; first compound 0.06325 µM) of 0.796, a relative viability (Vandetanib + Vorinostat; first compound 0.2 µM) of 0.782 and a relative viability (Vandetanib + Vorinostat; first compound 0.6325 µM) of 0.89. It also gave a relative viability (Vandetanib + Vorinostat; first compound 2 µM) of 0.816, a relative viability (CUDC-101 + Palbociclib; first compound 0.01 µM) of 0.737 and a relative viability (CUDC-101 + Palbociclib; first compound 0.03162 µM) of 0.74. It also gave a relative viability (CUDC-101 + Palbociclib; first compound 0.1 µM) of 0.793, a relative viability (CUDC-101 + Palbociclib; first compound 0.3162 µM) of 0.818 and a relative viability (CUDC-101 + Palbociclib; first compound 1 µM) of 0.648. It also gave a relative viability (NVP-TAE684 + Lapatinib; first compound 0.2 µM) of 0.914, a relative viability (NVP-TAE684 + Lapatinib; first compound 0.6325 µM) of 0.893 and a relative viability (NVP-TAE684 + Lapatinib; first compound 2 µM) of 0.808.
